Source: EP2769723A1, “Compounds for use in inhibiting HIV capsid assembly” (priority 2013, dated 2014)
Where a name gives a salt, the structure may show the parent alone.

Columns and labels:
TZM cells = experiment: in vitro; format: cell-based; settings: Table 4; non-cytotoxic when values higher than 80 % of 1 % DMSO treated cells
Protocol: Cytotoxicity of selected hits tested in the assay with NL4.3 infected cells was determined by MTT test. TZM cells were seeded on the previous day on 96-well plate in the density 5 x 10^3 cells per well. The tested compounds were added in different concentrations, but the DMSO concentration never exceeded 1 % DMSO. As controls were used cells treated only with 1 % DMSO (non-toxic concentration) and cells treated with 5 % DMSO (toxic concentration). 20 µl of the CellTiter 96 Aqueous One substrate (Promega) was added to the 100 µl of culture media 48 hrs after the compounds addition and the color development was quantified 4 hrs later by measuring the absorbance at 490 nm on Saphire reader. Compounds were consider non-cytotoxic (at given concentrations) when the measured values were higher than 80 % of the value of 1 % DMSO treated cells.

wild type NL4.3 HIV-1 = experiment: Tissue culture infectivity test, TZM titration of supernatants from infected TZM cells; format: cell-based; settings: Human immunodeficiency virus 1, TZM, read-out: tissue culture IC50 (µM)
Protocol: Hits selected in the YFP-screen were further evaluated in the tissue culture experiments with cells infected with the wild type NL4.3 HIV-1. The virus for infection was obtained from co-culture of MT4 cells. The MT4 cells co-culture was synchronized for one week and then used for the infection of fresh MT 4 cells. 48 hrs post-infection was the culture supernatant harvested, cleared by the filtration through […] filter and stored in -80 °C in 1 ml aliquots. Amount of virus was quantified by enzyme-linked immuno sorbent assay (ELISA) with antibodies against HIV-1 CA (3 ng of CA/ml) and blue cell assay (1x10^5 IU/ml), which gives 3 x 10^4 IU/ng of CA.
For compounds testing the TZM cells were seeded on 96-well plate in the density 5 x 10^3 cells per well. The culture media was aspirated approx. 16 hrs later and cells were infected by the wild type NLA.3 HIV-1 by addition of 50J..il of prepared virus stock diluted with 50 µl of complete DMEM. The compounds were added twice to ensure that there are not any preassembled viruses present at the time of their addition. Compounds were first added 8 hrs post-infection and then 24 hrs later. In both cases the old culture media were replaced by 100 µl of fresh complete DMEM prior to the compounds addition. Different compounds concentrations were tested, but the DMSO concentration never exceeded 1 % DMSO. As controls were used cells treated only with 1 % DMSO and cells treated with 0,1 µM Lopinavir (HIV-1 protease inhibitor). Supernatant was harvested 24 hrs after the second compound addition, i.e. 56 hrs post-infection. Harvested supernatants were immediately titrated on the fresh TZM cells in aim to perform the infectivity assay (TZM titration), or inactivated by addition of Triton X-100 to the final concentration 0.025 % for further ELISA analysis.
TZM titration was performed on the cells seeded day before on 96-well plate in the density 5 x 10^3 cells per well. The analysis was performed for each compound concentration at three different dilutions and in duplicates. The culture media was aspired and cells were lysed 48 hrs post-infection by addition of 100 µl of SteadyGlo luciferase substrate (Promega) diluted 1 : 1 by complete DMEM. The luminescence signal was measured on Luminoskan Ascent (Thermo Labsystems) after the transfer of 80 µl of lysate to the flat bottom white polystyrene assay plates (Costar).

CA = target: T1, CA (Human immunodeficiency virus type 1 group M subtype B, UniProt P12493); experiment: ALPHA screen (AlphaScreen): inhibition of CAI binding to CA; parameters: species or system HIV-1; settings: CAI-biotin peptide / CA-GST; compounds screened at 0.5-100 µM; read-out: α screen IC50
T1 construct: a fusion protein of CA with glutathione-S-transferase (CA-GST)
Protocol: The AlphaScreen experiments are performed using Perkin Elmer Enspire plate reader in white 96-well ProxiPlates and PBS supplemented with 0.05% Tween20, 2mM DTT, 2% DMSO. First, Streptavidin-coated Donor beads are used to capture the CAI-biotin peptide. In the other solution, a fusion protein of CA with glutathione-S-transferase (CA-GST) is mixed with GSH Acceptor beads. Both mixtures were incubated and then mixed together. To test the ability of prepared organic compounds to inhibit the CAI binding to CA, they are screened at concentrations between 0.5-100 µM and IC50 values are calculated from the influenced signals.
Upon illumination by laser at 680 nm, Donor beads containing the photosensitizer phthalocyanine convert ambient oxygen to an excited form of singlet oxygen ^1O2. Singlet oxygen can within its half-life of ~ 4 µs diffuse approximately 200 nm in solution. If an Acceptor bead is within that proximity, which is mostly upon CA:CAI interaction, energy is transferred from the singlet oxygen to thioxene derivates within the Acceptor and signal at 520 - 620 nm is emitted.

SMILES	toxicity LC50 (µM) (TZM cells)	IC50 (wild type NL4.3 HIV-1)	IC50 (CA)
Fc1cc(F)c(Nc2nc(-c3cccnc3)nc3ccccc23)cc1Br [KP-100]	non-toxic		
Fc1ccc(Nc2nc(-c3cccnc3)nc3ccccc23)cc1F [KP-271]	non-toxic	~10 µM	
CS(=O)(=O)c1ccc(Nc2nc(-c3ccncc3)nc3ccccc23)cc1 [AMR-551]	non-toxic	> 10 µM	
COCCN(CCOC)c1nc(-c2cccnc2)nc2ccccc12 [OSR-283 HCl]	non-toxic	> 10 µM	
Cc1ccc(Nc2nc(-c3cccnc3)nc3ccccc23)cc1C(F)(F)F [KP-278]	non-toxic	~10 µM	
CCOC(=O)c1cccc(Nc2nc(-c3ccncc3)nc3ccccc23)c1 [AMR-541]	non-toxic	< 5 µM	
O=[N+]([O-])c1cc(Nc2ccnc(-c3cccnc3)n2)ccc1F [KP-43]	non-toxic		
Fc1cc(Nc2ncnc3ccccc23)cc(F)c1F [KP-152]	non-toxic	~17 µM	
Fc1cc(Nc2nc(N3CCOCC3)nc3ccccc23)cc(F)c1F [KP-268]	non-toxic	> 10 µM	
O[C@H]1CC[C@H](Nc2nc(-c3cccnc3)nc3ccccc23)CC1 [OSR-183]	non-toxic	> 25 µM	
Fc1cccc(Nc2nc(-c3cccnc3)nc3ccccc23)c1 [KP-165]	non-toxic	> 10 µM	
O=C(O)c1ccc(Nc2nc(-c3ccncc3)nc3ccccc23)cc1 [AMR-542]	non-toxic	> 10 µM	
Fc1cc(Nc2nc(-c3ccccc3)nc3ccccc23)cc(F)c1F [KP-153]	non-toxic	10 to 15 µM	
COc1ccc(Nc2nc(-c3cc(F)c(F)c(F)c3)nc3ccccc23)cn1 [KP-291]	non-toxic	> 10 µM	
CCOC(=O)N1CCC(Nc2nc(-c3ccncc3)nc3ccccc23)CC1 [AMR-577]	non-toxic	> 10 µM	
CNc1ccc(F)cc1Nc1nc(-c2ccncc2)nc2ccccc12 [AMR-558]	non-toxic	> 10 µM	
O=[N+]([O-])c1cnccc1Nc1nc(-c2cccnc2)nc2ccccc12 [KP-92]	non-toxic	~8 µM	
c1cncc(-c2nc(NC3CC3)c3ccccc3n2)c1 [KP-216]	non-toxic	> 10 µM	
COc1cc2nc(Nc3cc(F)c(F)c(F)c3)nc(Nc3cc(F)c(F)c(F)c3)c2cc1OC [KP-272]	non-toxic	< 5 µM	
CC(=O)c1ccc(Nc2nc(-c3ccncc3)nc3ccccc23)cc1 [AMR-535]	non-toxic	< 5 µM	
c1cncc(-c2nc(Oc3nc(-c4cccnc4)nc4ccccc34)c3ccccc3n2)c1 [OSA-296]	non-toxic	> 10 µM	
C[S+]([O-])c1ccc(Nc2nc(-c3ccncc3)nc3ccccc23)cc1 (stereo not shown) [AMR-573]	non-toxic	> 10 µM	
CSc1ccc(Nc2nc(-c3ccncc3)nc3ccccc23)cc1 [AMR-570]	non-toxic	~10 µM	
Fc1ccc(Nc2nc(-c3cccnc3)nc3ccccc23)c(F)c1F [OSR-298]	non-toxic	> 10 µM	
Oc1cc(Cl)cc(Nc2nc(-c3cccnc3)nc3ccccc23)c1 [KP-251]	non-toxic	~5 µM	
CC(O)c1ccc(Nc2nc(-c3ccncc3)nc3ccccc23)cc1 (stereo not shown) [AMR-566]	non-toxic	~10 µM	
O=[N+]([O-])c1ccc(Nc2cc(-c3cccnc3)nc3ccccc23)c(F)c1 [KP-94]		~5 µM	
O=[N+]([O-])c1cc(Nc2nc(-c3cccnc3)nc3ccccc23)ccc1F [AMR.425]	non toxic		7 µM
Oc1ccc2nc(-c3cccnc3)nc(Nc3cc(F)c(F)c(F)c3)c2c1 [OSR-217]	non-toxic		
Oc1ccc2nc(-c3cccnc3)nc(O)c2c1 [OSR-243]	non-toxic		
